Tested on: Plasmodium berghei
Assay: Luciferase/luciferin-expressing antifolate-resistant parasites were used to infect a culture of HepG2 cells that were pre-incubated with compounds. Infected hepatocytes emit light due to the luciferase reaction. Assay results are presented as the percent inhibition of light emission compared to control. […]
Assay type: functional
Conditions: sporozoite; for IC90: read-out: LUCIFERASE INFECTION ASSAY - IC90
[1] = read-out: LUCIFERASE INFECTION ASSAY - IC50

`COc1ccc(-c2cnc3ccc(NCc4ccc(F)cc4)nn23)cc1` gave an IC50 (HEPG2TOX_HILL_SLOPE 2.12, HEPG2TOX_R_SQUARED 0.979, PBLUC_HILL_SLOPE 9.57, PBLUC_R_SQUARED 0.534, read-out: LUCIFERASE INFECTION ASSAY - IC50) of 3.13 µM and an IC90 of 3.94 µM.

With `CC(C)(C)c1cc(NC(=O)CSc2ccc(Cl)cc2)c(C(N)=O)s1` the IC50 (FFLUC_HILL_SLOPE 13.8, FFLUC_R_SQUARED 0.177, HEPG2TOX_HILL_SLOPE 8.22, HEPG2TOX_R_SQUARED 0.725, read-out: LUCIFERASE INFECTION ASSAY - IC50) was over 8.62 µM and the IC90 was over 8.62 µM.

For `COc1cc(Nc2ncc3c(n2)CCN(C(=O)Nc2ccc(OC(F)(F)F)cc2)C3)cc(OC)c1OC`, the IC50 (HEPG2TOX_HILL_SLOPE 2.89, HEPG2TOX_R_SQUARED 0.596, read-out: LUCIFERASE INFECTION ASSAY - IC50) was over 6.35 µM and the IC90 was over 6.35 µM.

`O=c1nc(-c2ccc(Cl)cc2)oc2ccccc12` was tested, and the IC50 (PBLUC_HILL_SLOPE 3.1, PBLUC_R_SQUARED 0.539, read-out: LUCIFERASE INFECTION ASSAY - IC50) was 5.33 µM and the IC90 was 10.8 µM.

Compound `CC(c1ccc(-n2cncn2)cc1)N(C)c1ncnc2ccsc12` (stereo unspecified) has an IC50 (HEPG2TOX_HILL_SLOPE 9.54, HEPG2TOX_R_SQUARED 0.431, PBLUC_HILL_SLOPE 1.32, 1.56, PBLUC_R_SQUARED 0.780, 0.216, read-out: LUCIFERASE INFECTION ASSAY - IC50) of 3.71 µM and an IC90 of over 10 µM.

`CC1(C(=O)NCc2ccco2)Cc2c(-c3ccc4c(c3)OCO4)ccnc2O1` (stereo unspecified) was tested, and the IC50 (FFLUC_HILL_SLOPE 0.436, FFLUC_R_SQUARED 0.176, HEPG2TOX_HILL_SLOPE 1.94, HEPG2TOX_R_SQUARED 0.783, PBLUC_HILL_SLOPE 1.2, PBLUC_R_SQUARED 0.613, read-out: LUCIFERASE INFECTION ASSAY - IC50) was 2.28 µM and the IC90 was over 8.72 µM.

Compound `Cc1c(Cl)cccc1N=C(SCC(=O)N1CCCCCC1)C(C#N)c1nc2ccccc2s1` (stereo unspecified) has an IC50 (HEPG2TOX_HILL_SLOPE 5.36, HEPG2TOX_R_SQUARED 0.816, PBLUC_HILL_SLOPE 12.3, PBLUC_R_SQUARED 0.271, read-out: LUCIFERASE INFECTION ASSAY - IC50) of 8.92 µM and an IC90 of over 10 µM.

For `Cc1cc(=O)n2nc(CSc3ncc(-c4ccccc4)n3-c3c(C)cccc3C)sc2n1`, the IC50 [1] was 2.38 µM and the IC90 was 5.16 µM.

`O=C(Nc1ccc(CN2CCCC2)cc1)c1ccc(-n2cnc3ccccc32)cc1` was tested, and the IC50 (HEPG2TOX_HILL_SLOPE 1.93, HEPG2TOX_R_SQUARED 0.859, PBLUC_HILL_SLOPE 3.59, PBLUC_R_SQUARED 0.621, read-out: LUCIFERASE INFECTION ASSAY - IC50) was 5.74 µM and the IC90 was over 10 µM.

Compound `CCC(C)NC(=S)N/N=C/c1cc(Cl)cc(Cl)c1O` (stereo unspecified) has an IC50 [1] of over 10.3 µM and an IC90 of over 10.3 µM.

`N#Cc1ccccc1OC(=O)Nc1ccc(OC(F)(F)F)cc1` showed an IC50 [1] of 3.31 µM and an IC90 of 3.62 µM.

`Cc1cc(Oc2ccc(NC(=O)Nc3c(-c4c(Cl)cccc4Cl)noc3C)cn2)cc(C)c1Cl` was tested, and the IC50 (FFLUC_HILL_SLOPE 16.7, FFLUC_R_SQUARED 0.348, read-out: LUCIFERASE INFECTION ASSAY - IC50) was over 6.37 µM and the IC90 was over 6.37 µM.

With `CN(C)C(CNC(=O)c1ccc(COc2ccccc2)cc1)Cc1ccccc1` (stereo unspecified) the IC50 (PBLUC_HILL_SLOPE 1.49, PBLUC_R_SQUARED 0.218, read-out: LUCIFERASE INFECTION ASSAY - IC50) was 7.64 µM and the IC90 was over 10 µM.

Work on `Cc1ccc(CSc2nc(C)c(Oc3ccc(F)cc3)c(=O)n2C)cc1` yielded an IC50 [1] of over 8.91 µM and an IC90 of over 8.91 µM.

In the case of `COc1ccc(Cl)cc1C(=O)NNC(=O)CSc1nccn1-c1ccc(C)c(C)c1`, the IC50 (PBLUC_HILL_SLOPE 46.1, PBLUC_R_SQUARED 0.54, read-out: LUCIFERASE INFECTION ASSAY - IC50) is reported as 6.27 µM and the IC90 is reported as 6.58 µM.

In the case of `Oc1cccc(-c2ccnc3n[nH]c(-c4ccc5c(c4)OCO5)c23)c1`, the IC50 (HEPG2TOX_HILL_SLOPE 9.48, HEPG2TOX_R_SQUARED 0.645, PBLUC_HILL_SLOPE 1.2, PBLUC_R_SQUARED 0.596, read-out: LUCIFERASE INFECTION ASSAY - IC50) is reported as 0.984 µM and the IC90 is reported as 6.14 µM.

`N#Cc1ccc(OC(=O)c2c(Cl)cccc2Cl)cc1` showed an IC50 (HEPG2TOX_HILL_SLOPE 15.2, HEPG2TOX_R_SQUARED 0.237, read-out: LUCIFERASE INFECTION ASSAY - IC50) of over 11.3 µM and an IC90 of over 11.3 µM.

Compound `COc1ccc(-c2cnc3cnc(-c4cccc(C(=O)N(C)C)c4)cn23)cc1` has an IC50 (PBLUC_HILL_SLOPE 11.5, PBLUC_R_SQUARED 0.453, read-out: LUCIFERASE INFECTION ASSAY - IC50) of 3.37 µM and an IC90 of 4.08 µM.

In the case of `CCCN(CC(=O)Nc1ccccc1C)C(=O)Cn1nnc2ccccc21`, the IC50 [1] is reported as over 10 µM and the IC90 is reported as over 10 µM.

`O=C1OC(C23CC4CC(CC(C4)C2)C3)=N/C1=C\c1ccc(Cl)c([N+](=O)[O-])c1` gave an IC50 [1] of over 10 µM and an IC90 of over 10 µM.

`Cc1cc(C)c(OCC(=O)N2CCCC2c2nc3ccccc3[nH]2)c(C)c1` (stereo unspecified) was tested, and the IC50 [1] was over 10 µM and the IC90 was over 10 µM.

In the case of `COc1cccc(NC(=O)c2cc(C(C)(C)C)n(-c3ccccc3)c2C)c1`, the IC50 (PBLUC_HILL_SLOPE 0.223, PBLUC_R_SQUARED 0.111, read-out: LUCIFERASE INFECTION ASSAY - IC50) is reported as over 9.1 µM and the IC90 is reported as over 9.1 µM.

In the case of `N#Cc1ccccc1OC(=O)Nc1ccc(SC(F)(F)F)cc1`, the IC50 (HEPG2TOX_HILL_SLOPE 3.54, HEPG2TOX_R_SQUARED 0.941, PBLUC_HILL_SLOPE 4.88, PBLUC_R_SQUARED 0.753, read-out: LUCIFERASE INFECTION ASSAY - IC50) is reported as 1.16 µM and the IC90 is reported as 1.82 µM.

For `Cc1ccc(-n2c(SCc3nc4ccccc4c(=O)o3)nnc2-c2ccccc2)cc1C`, the IC50 [1] was over 10 µM and the IC90 was over 10 µM.

With `C=CCN(c1ccccc1)S(=O)(=O)c1cccc(C(=O)Nc2ccc(CCCC)cc2)c1` the IC50 (FFLUC_HILL_SLOPE 3.89, FFLUC_R_SQUARED 0.431, PBLUC_HILL_SLOPE 2.64, PBLUC_R_SQUARED 0.773, read-out: LUCIFERASE INFECTION ASSAY - IC50) was 5.84 µM and the IC90 was over 10 µM.

For `Cc1c(C(=O)C(F)(F)F)c(-c2nn(-c3ccccc3)c(NC(=O)C(F)(F)F)c2C(=O)C(F)(F)F)c(C)n1-c1ccc(F)cc1`, the IC50 (FFLUC_HILL_SLOPE 13.3, FFLUC_R_SQUARED 0.772, PBLUC_HILL_SLOPE 3.36, PBLUC_R_SQUARED 0.0987, read-out: LUCIFERASE INFECTION ASSAY - IC50) was 8.23 µM and the IC90 was over 10 µM.

With `Cc1cccc(C(=O)NCCC(=O)NCc2ccccc2F)c1` the IC50 [1] was over 10 µM and the IC90 was over 10 µM.

`C/C(=N\NC(=O)c1ccc(OCC(=O)N2C(C)CCCC2C)cc1)c1ccc2ccccc2c1O` (stereo unspecified) gave an IC50 (HEPG2TOX_HILL_SLOPE 2.27, HEPG2TOX_R_SQUARED 0.93, PBLUC_HILL_SLOPE 2.78, PBLUC_R_SQUARED 0.436, read-out: LUCIFERASE INFECTION ASSAY - IC50) of 1.77 µM and an IC90 of 3.9 µM.

Work on `COc1ccccc1Oc1ccc(C(F)(F)F)cc1NC(=O)c1sc2ccccc2c1Cl` yielded an IC50 [1] of over 6.91 µM and an IC90 of over 6.91 µM.

With `CC1CCc2sc(C(=O)N/N=C/c3ccc(Cl)cc3Cl)cc2C1` (stereo unspecified) the IC50 (HEPG2TOX_HILL_SLOPE 2.35, HEPG2TOX_R_SQUARED 0.954, PBLUC_HILL_SLOPE 8.15, PBLUC_R_SQUARED 0.258, read-out: LUCIFERASE INFECTION ASSAY - IC50) was 3.82 µM and the IC90 was 5.01 µM.

For `CSc1ccc(OC(=O)Nc2ccccc2)cc1`, the IC50 [1] was over 12.7 µM and the IC90 was over 12.7 µM.

Compound `COc1ccccc1CNC(=O)N/C=C/c1ccccc1Cl` has an IC50 (PBLUC_HILL_SLOPE 1.23, PBLUC_R_SQUARED 0.697, read-out: LUCIFERASE INFECTION ASSAY - IC50) of 5.38 µM and an IC90 of over 10.4 µM.

Compound `CCCNC(=O)c1c(NC(=O)c2cc(OC)cc(OC)c2)nc2ccccn12` has an IC50 (PBLUC_HILL_SLOPE 11.4, PBLUC_R_SQUARED 0.597, read-out: LUCIFERASE INFECTION ASSAY - IC50) of 7.32 µM and an IC90 of over 8.63 µM.

For `COc1ccccc1-n1c(C)c(C)c2c1ncn1nc(-c3ccncc3)nc21`, the IC50 (PBLUC_HILL_SLOPE 2.29, PBLUC_R_SQUARED 0.762, read-out: LUCIFERASE INFECTION ASSAY - IC50) was over 8.91 µM and the IC90 was over 8.91 µM.

`COc1ccc(C(=O)CSC2=NCCCC2)cc1` was tested, and the IC50 [1] was over 9.59 µM and the IC90 was over 9.59 µM.

For `CN1C/C(=C\c2ccc(Cl)cc2)C(=O)/C(=C/c2ccc(Cl)cc2)C1`, the IC50 [1] was 7 µM and the IC90 was over 9.21 µM.

Work on `OCc1ccc(-c2cnc3cnc(-c4ccccc4Cl)cn23)cc1` yielded an IC50 (HEPG2TOX_HILL_SLOPE 2.47, HEPG2TOX_R_SQUARED 0.702, PBLUC_HILL_SLOPE 3.47, PBLUC_R_SQUARED 0.368, read-out: LUCIFERASE INFECTION ASSAY - IC50) of 4.84 µM and an IC90 of 9.11 µM.

`Cc1cccc(Nc2ccccc2C(=O)OCC(=O)Nc2cccc(C#N)c2)c1C` gave an IC50 (HEPG2TOX_HILL_SLOPE 6.86, HEPG2TOX_R_SQUARED 0.37, PBLUC_HILL_SLOPE 1.78, PBLUC_R_SQUARED 0.801, read-out: LUCIFERASE INFECTION ASSAY - IC50) of 3.16 µM and an IC90 of over 10 µM.

In the case of `Brc1ccc(Nn2c(-c3ccccc3)nc3c2C2C=CC=CC2C=N3)cc1` (stereo unspecified), the IC50 [1] is reported as 3.6 µM and the IC90 is reported as 5.07 µM.

With `O=C(NNC(=O)c1cc2cc(Cl)ccc2[nH]1)c1ccc(S(=O)(=O)N2CCCC2)cc1` the IC50 (HEPG2TOX_HILL_SLOPE 3.29, HEPG2TOX_R_SQUARED 0.977, PBLUC_HILL_SLOPE 10.3, 16.0, PBLUC_R_SQUARED 0.127, 0.622, read-out: LUCIFERASE INFECTION ASSAY - IC50) was 8.54 µM and the IC90 was 9.83 µM.

`CCOC(=O)c1ccc(Oc2sccc2[N+](=O)[O-])cc1` showed an IC50 [1] of over 11.3 µM and an IC90 of over 11.3 µM.

`Cc1ccc(OCC(=O)N(Cc2ccccc2)c2c(N)n(Cc3ccccc3)c(=O)[nH]c2=O)c(C)c1` was tested, and the IC50 (PBLUC_HILL_SLOPE 0.649, PBLUC_R_SQUARED 0.141, read-out: LUCIFERASE INFECTION ASSAY - IC50) was over 10 µM and the IC90 was over 10 µM.

For `c1nc(NCc2ccc(CN3CCOCC3)cc2)c2c3c(sc2n1)CCC3`, the IC50 (HEPG2TOX_HILL_SLOPE 1.37, HEPG2TOX_R_SQUARED 0.969, PBLUC_HILL_SLOPE 10, PBLUC_R_SQUARED 0.164, read-out: LUCIFERASE INFECTION ASSAY - IC50) was 1.25 µM and the IC90 was 1.55 µM.

From ChEMBL document CHEMBL4483862, “Open-source discovery of chemical leads for next-generation chemoprotective antimalarials” (2018)
